Experimental data: patent publication US20150284674A1, “CAMPYLOBACTER BACTERIA AND DETECTION” (priority 2012, published 2015)
≈ marks a conversion by molar mass, not a printed value.

Legend:
C. helveticus = conditions: taxon 10: C. helveticus; cited from earlier work
C. canadensis = conditions: taxon 2: C. canadensis; cited from earlier work
C. lari = conditions: taxon 18: C. lari; cited from earlier work
C. concisus = conditions: taxon 4: C. concisus; cited from earlier work
C. rectus = conditions: taxon 20: C. rectus; cited from earlier work
C. lanienae = conditions: taxon 17: C. lanienae; cited from earlier work
C. mucosalis = conditions: taxon 19: C. mucosalis; cited from earlier work
[1] = tested on: novel campylobacter isolates; test: Disc diffusion susceptibility to nalidixic acid and cephalothin (30 μg discs); format: cell-based; conditions: for Susceptibility to (30 μg disc): disc diffusion; on Susceptibility to (30 μg disc): key: S, susceptible; R, resistant
[2] = tested on: C. hyointestinalis subsp. hyointestinalis; conditions: taxon 12: C. hyointestinalis subsp. hyointestinalis; cited from earlier work
[3] = tested on: C. fetus subsp. venerealis; conditions: taxon 8: C. fetus subsp. venerealis; cited from earlier work
C. jejuni subsp. Doylei = conditions: taxon 15: C. jejuni subsp. Doylei; cited from earlier work
C. fetus subsp. fetus = conditions: taxon 7: C. fetus subsp. fetus; cited from earlier work
C. cuniculurom = conditions: taxon 5: C. cuniculurom; cited from earlier work
C. gracilis = conditions: taxon 9: C. gracilis; cited from earlier work
C. showae = conditions: taxon 21: C. showae; cited from earlier work
C. upsaliensis = conditions: taxon 23: C. upsaliensis; cited from earlier work
[4] = tested on: C. hyointestinalis subsp. lawsonii; conditions: taxon 13: C. hyointestinalis subsp. lawsonii; cited from earlier work
C. hominus = conditions: taxon 11: C. hominus; cited from earlier work
C. coli = conditions: taxon 3: C. coli; cited from earlier work
C. insulaenigrae = conditions: taxon 14: C. insulaenigrae; cited from earlier work
C. curvus = conditions: taxon 6: C. curvus; cited from earlier work
C. avium sp. Nov = conditions: taxon 1: C. avium sp. Nov; cited from earlier work
[5] = tested on: Campylobacter novel strains; test: Antimicrobial susceptibility testing by agar dilution method (MIC); conditions: Campylobacter;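 further: agar dilution MIC on HBA, used in place of the BSAC-recommended Iso-sensitest agar, across a panel of 14 antimicrobials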
Experimental: Antimicrobial susceptibility testing was performed using the agar dilution method for the Campylobacter novel strains against 14 antimicrobials. […] As the strains were unable to grow on the Iso-sensitest agar (ISA) recommended by the BSAC guidelines, HBA (Table 1) was used as an alternative media.

C. jejuni subsp. Jejuni = conditions: taxon 16: C. jejuni subsp. Jejuni; cited from earlier work
C. sputorum = conditions: taxon 22: C. sputorum; cited from earlier work

**Q.** What does the source list for `CCn1cc(C(=O)O)c(=O)c2ccc(C)nc21` [Nalidixic acid]?
**A.** resistance (share of strains positive) (C. helveticus): − (−, 0-10% of strains positive); resistance (share of strains positive) (C. canadensis): V (V, 26-74% of strains positive); resistance (share of strains positive) (C. lari): V (V, 26-74% of strains positive); resistance (share of strains positive) (C. concisus): (+) ((+), 75-89% strains positive); resistance (share of strains positive) (C. rectus): (+) ((+), 75-89% strains positive); resistance (share of strains positive) (C. lanienae): + (+, 90-100% of strains positive); resistance (share of strains positive) (C. mucosalis): (+) ((+), 75-89% strains positive); susceptibility / resistance of the novel Campylobacter strains, in words ([1]; disc diffusion tests, 30 μg disc, novel Campylobacter strains overall): susceptible; Susceptibility to (30 μg disc) ([1]; strain Farm 1 2009/1): S; Susceptibility to (30 μg disc) ([1]; strain Farm 1 2009/2): S; Susceptibility to (30 μg disc) ([1]; strain Farm 1 2011/1): S; Susceptibility to (30 μg disc) ([1]; strain Farm 1 2011/2): S; Susceptibility to (30 μg disc) ([1]; strain Farm 1 2011/3): S; Susceptibility to (30 μg disc) ([1]; strain Farm 1 2011/4): S; Susceptibility to (30 μg disc) ([1]; strain Farm 1 2011/5): S; Susceptibility to (30 μg disc) ([1]; strain Farm 1 2011/6): S; Susceptibility to (30 μg disc) ([1]; strain Farm 2 2011/1): S; Susceptibility to (30 μg disc) ([1]; strain Farm 2 2011/2): S; Susceptibility to (30 μg disc) ([1]; strain Farm 2 2011/3): S; Susceptibility to (30 μg disc) ([1]; strain Farm 2 2011/4): S; Susceptibility to (30 μg disc) ([1]; strain Farm 3 2011/1): S; Susceptibility to (30 μg disc) ([1]; strain Farm 3 2011/2): S; Susceptibility to (30 μg disc) ([1]; strain Farm 3 2011/3): S; Susceptibility to (30 μg disc) ([1]; strain Farm 4 2011/1): S; Susceptibility to (30 μg disc) ([1]; strain Farm 4 2011/2): S; Susceptibility to (30 μg disc) ([1]; strain Farm 4 2011/3): S; resistance (share of strains positive) ([1]; taxon A: Campylobacter novel (n=23)): − (−, 0-10% of strains positive); resistance (share of strains positive) [2]: + (+, 90-100% of strains positive); resistance (share of strains positive) [3]: V (V, 26-74% of strains positive); resistance (share of strains positive) (C. jejuni subsp. Doylei): − (−, 0-10% of strains positive); resistance (share of strains positive) (C. fetus subsp. fetus): + (+, 90-100% of strains positive); resistance (share of strains positive) (C. cuniculurom): V (V, 26-74% of strains positive); resistance (share of strains positive) (C. gracilis): V (V, 26-74% of strains positive); resistance (share of strains positive) (C. showae): − (−, 0-10% of strains positive); resistance (share of strains positive) (C. upsaliensis): − (−, 0-10% of strains positive); resistance (share of strains positive) [4]: + (+, 90-100% of strains positive); resistance (share of strains positive) (C. hominus): V (V, 26-74% of strains positive); resistance (share of strains positive) (C. coli): − (−, 0-10% of strains positive); resistance (share of strains positive) (C. insulaenigrae): + (+, 90-100% of strains positive); resistance (share of strains positive) (C. curvus): + (+, 90-100% of strains positive); resistance (share of strains positive) (C. avium sp. Nov): − (−, 0-10% of strains positive); MIC50 [5]: 4 µg/mL (≈ 17.2 µM); MIC90 [5]: 8 µg/mL (≈ 34.4 µM); resistance (share of strains positive) (C. jejuni subsp. Jejuni): − (−, 0-10% of strains positive); resistance (share of strains positive) (C. sputorum): (+) ((+), 75-89% strains positive)
